Assays:
Assay type in all cases: functional, cell-based
DU-4475 = test: Antiproliferative activity against human DU4475 cells after 72 hrs by MTT assay; conditions: DU-4475, 72 h
HCC1806 = test: Antiproliferative activity against human HCC1806 cells after 72 hrs by MTT assay; conditions: HCC1806, 72 h
MDA-MB-468 = test: Antiproliferative activity against human MDA-MB-468 cells after 72 hrs by MTT assay; conditions: MDA-MB-468, 72 h
MDA-MB-231 = test: Antiproliferative activity against human MDA-MB-231 cells after 72 hrs by MTT assay; conditions: MDA-MB-231, 72 h

Row | Structure (SMILES) | IC50 (DU-4475) [µM] | IC50 (HCC1806) [µM] | IC50 (MDA-MB-468) [µM] | IC50 (MDA-MB-231) [µM]
1 | C=C1C(=O)[C@@]23C(=O)[C@@H]4OC[C@]5(C=CCC(C)(C)[C@@H]45)[C@@H]2CC[C@@H]1[C@H]3OC(=O)c1ccncc1 | 1.42 | 1.39 | 1.32 | 1.08
2 | C=C1C(=O)[C@@]23C(=O)[C@@H]4OC[C@]5(C=CCC(C)(C)[C@@H]45)[C@@H]2CC[C@@H]1[C@H]3OC(=O)/C=C/c1ccc2c(c1)OCO2 | 2.48 | 3.02 | 2.65 | 2.23
3 | C=C1C(=O)[C@@]23C(=O)[C@@H]4OC[C@]5(C=CCC(C)(C)[C@@H]45)[C@@H]2CC[C@@H]1[C@H]3OC(=O)/C=C/c1cncnc1 | 0.62 | 0.77 | 0.84 | 1.08
4 | C=C1C(=O)[C@@]23C(=O)[C@@H]4OC[C@]5(C=CCC(C)(C)[C@@H]45)[C@@H]2CC[C@@H]1[C@H]3OC(C)=O | 0.75 | 1 | 0.79 | 0.96
5 | C=C1C(=O)[C@@]23C(=O)[C@@H]4OC[C@]5(C=CCC(C)(C)[C@@H]45)[C@@H]2CC[C@@H]1[C@H]3OC(=O)/C=C/c1ccoc1 | 1.38 | 1.22 | 1.34 | 1.28
6 | C=C1C(=O)[C@@]23C(=O)[C@@H]4OC[C@]5(C=CCC(C)(C)[C@@H]45)[C@@H]2CC[C@@H]1[C@H]3OC(=O)c1cnccn1 | 0.71 | 0.73 | 0.76 | 0.53
7 | C=C1C(=O)[C@@]23C(=O)[C@@H](OC(C)=O)[C@@H]4C(C)(C)CC=C[C@@]4(COC(C)=O)[C@@H]2CC[C@@H]1[C@H]3OC(C)=O | 1.9 | 2.42 | 1.66 | 3.71
8 | C=C1C(=O)[C@@]23C(=O)[C@@H]4OC[C@]5(C=CCC(C)(C)[C@@H]45)[C@@H]2CC[C@@H]1[C@H]3OC(=O)c1ccc2ncccc2c1 | 2.59 | 2.67 | 2.56 | 2.11
9 | C=C1C(=O)[C@@]23C(=O)[C@@H]4OC[C@]5(C=CCC(C)(C)[C@@H]45)[C@@H]2CC[C@@H]1[C@H]3OC(=O)c1ccc(F)cc1 | 2.05 | 1.65 | 2.05 | 1.41
10 | C=C1C(=O)[C@@]23C(=O)[C@@H]4OC[C@]5(C=CCC(C)(C)[C@@H]45)[C@@H]2CC[C@@H]1[C@H]3OC(=O)/C=C(\C)c1ccccc1 | 2.44 | 1.85 | 1.99 | 1.48
11 | C=C1C(=O)[C@@]23C(=O)[C@@H]4OC[C@]5(C=CCC(C)(C)[C@@H]45)[C@@H]2CC[C@@H]1[C@H]3OC(=O)/C=C/c1ccc(Cl)cc1 | 2.15 | 1.97 | 2.34 | 1.62
12 | C=C1C(=O)[C@@]23C(=O)[C@@H]4OC[C@]5(C=CCC(C)(C)[C@@H]45)[C@@H]2CC[C@@H]1[C@H]3OC(=O)/C=C/c1cccnc1 | 0.34 | 0.31 | 0.53 | 0.68
13 | C=C1C(=O)[C@@]23C(=O)[C@@H]4OC[C@]5(C=CCC(C)(C)[C@@H]45)[C@@H]2CC[C@@H]1[C@H]3OC(=O)/C=C/c1ccnc(F)c1 | 0.94 | 1.12 | 1.03 | 0.7
14 | C=C1C(=O)[C@@]23C(=O)[C@@H]4OC[C@]5(C=CCC(C)(C)[C@@H]45)[C@@H]2CC[C@@H]1[C@H]3OC(=O)C=C(C)C | 2.72 | 3.06 | 2.81 | 2.09

— ChEMBL document CHEMBL4627407, “Identification of a Potent Oridonin Analogue for Treatment of Triple-Negative Breast Cancer” (J Med Chem, 2020)
